Laboratory results from US10322123B2, “Compound for anti-cancer therapy that acts by targeting GOF mutant P53 and stimulates P73 to restore the P53 pathway signaling” (The Penn State Research Foundation, priority 2014, dated 2019).

Tests used:
[1] = Body weight and toxicity in xenograft mice; type: in vivo; details: 45 mg/kg i.p. every 5 days
Protocol: CRL nude mice (female, 4-6 weeks old) were inoculated s.c. in the opposite flanks with 5 million DLD-1 or p73 knock-down DLD-1 cells in an equal volume of martrigel. Treatment with NSC59984 (i.p. injection) was initiated when the tumor masses reached a size of 3-5 mm. NSC59984 (45 mg/kg) was injected by i.p. route every 5 days. Fifteen days after treatment, the mice were euthanized using an institutional animal care and use committee-approved animal protocol.

[2] = system: Hop92 and SW480 cells; test: Flow cytometry sub-G1 DNA content; type: cell-based, human; details: 25 μM and 50 μM, 8 hours
Protocol: Cells were treated with NSC59984 or other drugs. […] The samples were then subjected to analysis by an Epics Elite flow cytometer to measure the DNA content of the stained cells.

[3] = target: T1, p73 (Homo sapiens, UniProt O15350); test: p73 protein level Western blot; type: cell-based; details: mutant p53-expressing tumor cells, 8 hours
T1 construct: endogenous in cells
Protocol: (§1) Proteins were extracted from cells and electrophoresed through 4-12% SDS-PAGE then transferred to PVDF membranes. The primary antibodies indicated in the figures were incubated with the transferred PVDF in blocking buffer at 4° C. overnight. Antibody binding was detected on PVDF with appropriate IRDye-secondary antibodies (LI-COR Biosciences, USA) by the ODYSSEY infrared imaging system.

[4] = system: wild-type p53; test: Wild-type p53 protein level Western blot; type: cell-based, human; details: 8 hr
Protocol: as §1

[5] = system: p53 transcriptional activity; test: p53-responsive luciferase reporter bioluminescence imaging; type: cell-based, human; details: for 1/slope of dose-dependent p53-responsive reporter bioluminescence: 24 hr
Protocol: Functional cell-based screening for small molecules that can increase p53-transcriptional activity was performed using noninvasive bioluminescence imaging in human colorectal cancer cells (SW480, DLD-1, HCT116 and p53-null HCT116) that stably express a p53-regulated reporter, as previously described (Wang W, et al., Proc Natl Acad Sci USA 2006; 103: 11003-8). Cells were seeded in 96-well plates at a density of 5×10^4 cells/well. […] Cells treated with 5 μM of Prodigiosin were used as a positive control, and DMSO treatment was used as a negative control in each screened plate. The bioluminescence in each treatment was normalized to DMSO treatment.
SW480, DLD-1, HCT116 and p53-null HCT116 cells which stably express a p53-regulated luciferase reporter were generated as previously described (Wang et al., 2006, Proc. Natl. Acad. Sci. USA 103:11003-11008; Wang et al., 2003, Cancer Biol. Ther. 2:196-202). MRCS, Wi38, Hop92 and RXF393 were obtained from ATCC and cultured as recommended. Cells were regularly authenticated by bioluminescence, growth and morphological observation.

[6] = system: mutant p53; type: cell-based, human
Protocol: The primary antibodies indicated in the figures were incubated with the transferred PVDF in blocking buffer at 4° C. overnight. Antibody binding was detected on PVDF with appropriate IRDye-secondary antibodies (LI-COR Biosciences, USA) by the ODYSSEY infrared imaging system.

[7] = system: mutant p53; test: Ubiquitination of mutant p53 (immunoprecipitation); type: cell-based, human; details: cancer cells treated with NSC59984 and MG132, 16 hr
Protocol: Five hundred micrograms of cell lysate were incubated with 2 μg of antibody overnight at 4° C. Then, 25 μl of protein A-Sepharose beads were added to the lysates. The immunoprecipitated proteins were eluted from protein A-Sepharose beads by boiling with 2× sample buffer and subjected to SDS-PAGE.
as §1

T1 sequence (O15350 whole entry): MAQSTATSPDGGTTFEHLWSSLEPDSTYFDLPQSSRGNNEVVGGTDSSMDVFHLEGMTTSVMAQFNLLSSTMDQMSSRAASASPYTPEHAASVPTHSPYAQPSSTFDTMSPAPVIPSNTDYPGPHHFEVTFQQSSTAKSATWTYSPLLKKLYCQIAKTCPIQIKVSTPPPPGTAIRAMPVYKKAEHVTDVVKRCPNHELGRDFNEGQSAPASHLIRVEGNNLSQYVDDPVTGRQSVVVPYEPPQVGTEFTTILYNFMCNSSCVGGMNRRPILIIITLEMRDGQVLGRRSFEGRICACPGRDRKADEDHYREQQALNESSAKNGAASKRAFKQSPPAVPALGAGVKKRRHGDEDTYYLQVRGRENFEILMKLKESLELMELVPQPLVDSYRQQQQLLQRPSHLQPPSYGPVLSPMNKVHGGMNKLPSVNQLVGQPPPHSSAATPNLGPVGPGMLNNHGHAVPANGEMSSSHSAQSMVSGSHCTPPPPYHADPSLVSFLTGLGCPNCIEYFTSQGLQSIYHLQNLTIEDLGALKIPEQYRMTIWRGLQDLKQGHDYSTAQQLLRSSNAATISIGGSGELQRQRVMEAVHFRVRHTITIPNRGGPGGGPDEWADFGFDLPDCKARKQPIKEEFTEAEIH

Compound: CN1CCN(C(=O)/C=C/c2ccc([N+](=O)[O-])o2)CC1 [NSC59984, (E)-1-(4-methylpiperazin-1-yl)-3-(5-nitrofuran-2-yl)prop-2-en-1-one]
- mouse body weights [1]: did not cause an obvious change
- toxic effect in mice ([1]; tested dose): no overt toxic effect
- subG1 DNA-content [2]: nor subG1 DNA-content was increased
- p73 protein levels [3]: not found to be increased
- wild-type p53 protein ([4]; HCT116 cancer cells, 25 and 50 μM): up-regulated
- wild-type p53 protein ([4]; MRC-5 normal cells, 50 μM): up-regulated
- 1/slope of dose-dependent p53-responsive reporter bioluminescence ([5]; DLD-1 (mutant p53 S241F)): 29.75
- 1/slope of dose-dependent p53-responsive reporter bioluminescence ([5]; SW480 (mutant p53 R273H, P309S)): 31.37
- p53-responsive bioluminescence ([5]; SW480 cells, 10 μM): increases
- 1/slope of dose-dependent p53-responsive reporter bioluminescence ([5]; p53-null HCT116 cells): 102.9
- p53-responsive bioluminescence ([5]; p53-null HCT116 cells, increasing doses): slightly induced
- p53-responsive bioluminescence ([5]; p73-overexpressing (Ad-p73) SW480 cells vs wild-type p53-overexpressing SW480 cells, 8 hr): significantly increased
- NSC59984-induced p53-responsive bioluminescence ([5]; p73 knock-down SW480 cells, 8 hr): abrogated
- 1/slope of dose-dependent p53-responsive reporter bioluminescence ([5]; wild-type p53-expressing HCT116 cells): 328.4
- p53-responsive bioluminescence ([5]; wild-type p53-expressing HCT116 cells, increasing doses): no significant increase
- total mutant p53 protein degraded ([6]; DLD-1 and RXF393 cells, 50 μM): 25-50%
- mutant p53 protein level ([6]; SW480, DLD-1, Hop92 and RXF393 cells, 8 hr, dose-dependent): down-regulated
- ubiquitination of mutant p53 [7]: increased ubiquitination
